Laboratory results published in patent US20250163384A1, “ORGANOIDS DERIVED FROM HUMAN COLONIC CELLS AND METHODS OF MAKING AND USING THE SAME” (priority 2022, published 2025).
Each block holds one compound with its values, some of them ahead of it.

Assays:
Assay type in all cases: cell-based, human
[1] = tested on: GiLA1 organoid monolayers; assay: Apoptosis-induced ERK waves and cell movement (particle image velocimetry) in GiLA1 organoid monolayers; conditions: 5 μM Gefitinib (FIG. 3G), after an apoptotic event
Method: 384-well plates were imaged with fluorescent microscopy on a Nikon Eclipse TI2 automated microscope. For quantification of wave dynamics, organoids were imaged every 10-30 min. Tracking and segmentation of single cells in time lapse images in FIG. 2 was performed using the MATLAB program p53Cinema (Reyes et al., 2019). Analysis of the extracted data was performed in MATLAB. For the ERK activity heat maps in FIG. 3, images of the ERK-KTRmRuby2 and the H2B-iRFP670 were captured every 7 min for 24 hr. For each frame, individual nuclei were segmented using a MATLAB script developed in-house that identifies nuclei based on the H2B-iRFP670 images. The cytoplasmic ERK-KTRmRuby2 signal was obtained by creating a two pixel wide annulus surrounding the nucleus and averaging the intensity. Cells with active ERK were identified as having a mean ERK-KTR cytoplasmic signal>the mean ERK-KTR nuclear signal. The density-based spatial clustering of applications with noise algorithm (dbscan, MATLAB, 2021b) was performed on the centroids of ERK active cells to identify spatial clusters of cells with active ERK. A boundary was drawn around the spatial clusters using the boundary algorithm in MATLAB. […]
To determine the properties of the ERK waves, about 450 cells were tracked and their ERK activity was assessed over time following an apoptotic event (FIG. 3D, left panel and FIG. 3E). […]

[2] = tested on: GiLA1 organoid monolayers; assay: Tissue patterning (nodes / cell clusters) in GiLA1 organoid monolayers; conditions: for speed of node loss / patterning defects: GiLA1 monolayers, ERK activation methods compared
Method: SCREENSTAR 384-well black plates (Grenier #781866) were coated with ice cold Matrigel (CB40230C) diluted 1:40 in Serum-free Advanced-DMEM F12 media (SFM) for 1 hr. Monolayers were prepared using our previously described protocol (Thorne et al., 2018; Sanman et al., 2020). Briefly, cells were removed from 3D Matrigel and resuspended in ice cold SFM and washed three times using ice cold SFM. Organoids were then dissociated by resuspension in Trypsin+10 μM Y-27 for 4 min followed by quenching in DMEM supplemented with 10% FBS and washing. Coating media was removed from 384-well plates and organoids plated at 7000 cells/well after counting using hemocytometer and cultured for 24 hr. Seeding media was then removed and replaced with complete LWRN media and changed daily for 7 days until cultures became confluent and tissue patterning was observed.
384-well plates were imaged with fluorescent microscopy on a Nikon Eclipse TI2 automated microscope. For quantification of wave dynamics, organoids were imaged every 10-30 min. Tracking and segmentation of single cells in time lapse images in FIG. 2 was performed using the MATLAB program p53Cinema (Reyes et al., 2019). Analysis of the extracted data was performed in MATLAB. For the ERK activity heat maps in FIG. 3, images of the ERK-KTRmRuby2 and the H2B-iRFP670 were captured every 7 min for 24 hr. For each frame, individual nuclei were segmented using a MATLAB script developed in-house that identifies nuclei based on the H2B-iRFP670 images. The cytoplasmic ERK-KTRmRuby2 signal was obtained by creating a two pixel wide annulus surrounding the nucleus and averaging the intensity. Cells with active ERK were identified as having a mean ERK-KTR cytoplasmic signal>the mean ERK-KTR nuclear signal. The density-based spatial clustering of applications with noise algorithm (dbscan, MATLAB, 2021b) was performed on the centroids of ERK active cells to identify spatial clusters of cells with active ERK. A boundary was drawn around the spatial clusters using the boundary algorithm in MATLAB. The ERK positive regions of each frame were summed up to generate the heat map in MATLAB.
Since ERK waves are largely restricted to the post-mitotic, differentiated compartments in our gut organoid monolayer model, we hypothesized that ERK waves may help regulate the patterning observed in the GiLA1 monolayers by restricting the stem cell compartment. To test this hypothesis, we asked if global activation of ERK activity could disrupt the patterning of the organoid monolayers. a well-established activator of the ERK pathway, phorbol 12-myristate 13-acetate (PMA) was used to acutely activate ERK signaling across the monolayer. […] To determine if nodes re-formed once ERK activity returned to baseline, we treated GiLA1 monolayers with a pulse of 100 nM PMA for 1 min.

[3] = tested on: ERK; assay: ERK kinase translocation reporter (ERK-KTR) activity in GiLA1 organoid monolayers; conditions: for time to activation of ERK: GiLA1 monolayers, ERK activation methods compared
Method: 384-well plates were imaged with fluorescent microscopy on a Nikon Eclipse TI2 automated microscope. For quantification of wave dynamics, organoids were imaged every 10-30 min. Tracking and segmentation of single cells in time lapse images in FIG. 2 was performed using the MATLAB program p53Cinema (Reyes et al., 2019). Analysis of the extracted data was performed in MATLAB. For the ERK activity heat maps in FIG. 3, images of the ERK-KTRmRuby2 and the H2B-iRFP670 were captured every 7 min for 24 hr. For each frame, individual nuclei were segmented using a MATLAB script developed in-house that identifies nuclei based on the H2B-iRFP670 images. The cytoplasmic ERK-KTRmRuby2 signal was obtained by creating a two pixel wide annulus surrounding the nucleus and averaging the intensity. Cells with active ERK were identified as having a mean ERK-KTR cytoplasmic signal>the mean ERK-KTR nuclear signal. The density-based spatial clustering of applications with noise algorithm (dbscan, MATLAB, 2021b) was performed on the centroids of ERK active cells to identify spatial clusters of cells with active ERK. A boundary was drawn around the spatial clusters using the boundary algorithm in MATLAB. The ERK positive regions of each frame were summed up to generate the heat map in MATLAB. MAPK/ERK signaling is a critical regulatory pathway involved in maintaining homeostasis of epithelia in the gut (Wei et al., 2020). To assess ERK activity in human organoid monolayers over time, we utilized a well-characterized ERK kinase translocation reporter (ERK-KTR) (Regot et al., 2014). The ERK-KTR utilizes a bipartite nuclear localization signal (NLS) and nuclear export signal (NES) to transform ERK kinase activity into a nuclear to cytoplasmic shuttling event that is easily quantified by microscopy in organoid monolayers (FIG. 3A). We transduced the GiLA1 organoid line with a H2B-iRFP670 nuclear marker and ERK-KTR-mRuby2 reporter to perform nuclear and cytoplasmic segmentation and calculate nuclear-to-cytoplasmic ratios of the ERK-KTR (FIG. 3A, FIG. 3B and FIG. 9A).

[4] = tested on: Wnt signaling; assay: TopGFP Wnt reporter in organoid monolayers; conditions: 3 μM pyrvinium, 72 hr
Method: Organoids were treated with either 3 μM pyrvinium to block Wnt signaling or 10 μM GSK-3 inhibitor to stimulate the Wnt pathway for 72 hr. Cells were fixed and stained for DAPI. Total GFP fluorescence across the monolayer was measured and normalized by mCherry control to obtain TopGFP measurements per condition. Significance between treatment groups was determined by t-test. Scale bar=100 μm.

SMILES: COc1cc2ncnc(Nc3ccc(F)c(Cl)c3)c2cc1OCCCN1CCOCC1 [Gefitinib]
ERK waves and tropism towards dying cells [1]: did not induce ERK waves or display tropism towards dying cells

time to activation of ERK [3]: within hours
SMILES: Cc1cc(/C=C/c2ccc3cc(N(C)C)ccc3[n+]2C)c(C)n1-c1ccccc1 [pyrvinium]
speed of node loss / patterning defects [2]: took days to induce patterning defects | Wnt signaling (TopGFP normalized by mCherry) [4]: Inhibits Wnt Signaling

SMILES: CCCCCCCCCCCCCC(=O)O[C@@H]1[C@@H](C)[C@@]2(O)[C@@H](C=C(CO)C[C@]3(O)C(=O)C(C)=C[C@@H]23)[C@@H]2C(C)(C)[C@]12OC(C)=O [PMA, phorbol 12-myristate 13-acetate]
loss of patterning (cell clusters) ([2]; 100 nM PMA, by 24 hr post-treatment (FIG. 4D-F)): almost complete loss of cell clusters | speed of node loss / patterning defects [2]: rapid node loss | node and ERK-KTR activity after pulse, washout and chase ([2]; PMA pulse 1 min, washout, chase for 24 hr (FIG. 4G bottom)): node loss and resuppression of ERK activity | nodes after pulse treatment ([2]; pulse of 100 nM PMA for 1 min): node loss | re-formation of nodes after pulse treatment ([2]; pulse of 100 nM PMA for 1 min, by 48 hr (FIG. 4G)): nodes did not re-form | ERK activity after continuous treatment ([3]; 100 nM PMA, 20-30 min (FIGS. 4B and C)): immediate hyperactivated ERK was observed in all cells | time to activation of ERK [3]: within hours | ERK levels after pulse treatment, later ([3]; pulse of 100 nM PMA for 1 min, after washout): ERK levels returned to normal | ERK activation after pulse treatment ([3]; pulse of 100 nM PMA for 1 min, read after 30 min): ERK activation in all cells
